The text below walks through data of the CATMoS acute toxicity set (Mansouri et al. 2021).

The nature of the data set: GHS categories as the set defines them, by LD50: 1 up to 5, 2 up to 50, 3 up to 300, 4 up to 2000, 5 above 2000 mg/kg. Particulars: rat; in vivo; po.
`CCCCCCCC(=O)OCCCCCC`: the GHS category is given as 5.
The same measure for `COc1ccc(Cl)cc1N/C(=N/C1CCCCC1)c1cccc(C)c1`: 4; for `Clc1ccc(CNC2=NCCS2)cc1`: 3.
For `COP(=O)(NC(=O)C(Cl)Cl)SC` (configuration not stated) the value was 4; for `CC(C)c1ccccc1OP(=O)(Oc1ccccc1C(C)C)Oc1ccccc1C(C)C`, 5; for `Cc1nc(N)sc1C(=O)NCc1ccccc1`, 4.
The same measure for `O=C(CC1Sc2ccccc2NC1=O)Nc1cccc(Cl)c1` (configuration not stated): 5; for `Cc1nc2ncnn2c(C)c1Cc1ccc(-c2ccccc2-c2nn[nH]n2)cc1`: 4.
Molecule `CCC=CCC=CCC=CCC=CCCCCCCC(=O)OCC` had a GHS category of 5.
In turn, `O=C=NS(=O)(=O)c1ccccc1C(F)(F)F` returned a GHS category of 4.
The same measure for `O=S(=O)(O)c1ccc2c(ccc3nn(-c4ccc(C=Cc5ccc(-n6cncn6)cc5S(=O)(=O)O)c(S(=O)(=O)O)c4)nc32)c1`: 5.
The molecule `Cc1[nH]c2ccc(O)cc2c1CC(=O)OCC(=O)O` gave a GHS category of 5.
The same measure for `CCCCCCCCCCCCCC(=O)N[C@@H](CCC(=O)O)C(=O)O`: 5; for `Cn1c(=O)oc2cc(C(=O)c3ccccc3)ccc21`: 5.
`C[C@]12COC(=O)C[C@@H]1CC[C@@H]1[C@@H]2CC[C@@]2(C)[C@H]1CC[C@]2(C)O` had a GHS category of 5.
The same measure for `CNC(=O)Oc1cc(C)c(S(C)(=O)=O)c(C)c1`: 4; for `OC(c1ccc(F)cc1F)c1cccnc1Cl` (configuration not stated): 5.
For `CC(=O)N(C)C(=O)Oc1cccc2c1OCO2` the value was 4; for `CC1=CC2[C@@H](C(=O)O1)C2(C)C` (some centres not stated), 5; for `CCCCCCCCCCCCCCCCCCCCO`, 5.
Molecule `CCCCCCCCOC=O` yielded a GHS category of 5.
The molecule `CC[C@H]1OC(=O)C[C@@H](O)[C@H](C)[C@@H](O[C@@H]2O[C@H](C)[C@@H](O[C@H]3C[C@@](C)(O)[C@@H](O)[C@H](C)O3)[C@H](N(C)C)[C@H]2O)[C@@H](CC=O)C[C@@H](C)C(=O)C=CC(C)=CC1CO[C@@H]1O[C@H](C)[C@@H](O)[C@@H](OC)[C@H]1OC` (some centres not stated) returned a GHS category of 5.
Molecule `O=C(O)CN(CCN(CC(=O)O)CC(=O)O)CCN(CC(=O)O)CC(=O)O` (racemic) yielded a GHS category of 5.
For the molecule `O=C1C=CC(=O)N1c1ccc(SSc2ccc(N3C(=O)C=CC3=O)cc2)cc1`, the GHS category was 5.
The same measure for `O=C(CSCCO)NCCCOc1cccc(CN2CCCCC2)c1`: 5; for `CCCCCCCCC(=O)O`: 5; for `CCCCCBr`: 5.
Regarding `C[C@@H]1[C@@H](c2ccc(Cl)cc2)SC(=O)N1C(=O)NC1CCCCC1` (single isomer, unassigned), the GHS category came out at 5.
Turning to `CCCCCCCCCCCC(=O)OC1CC(C)(C)NC(C)(C)C1`, the GHS category is recorded as 5.
The molecule `CC(=O)Nc1ccc(NC(=O)c2cc3ccccc3cc2O)cc1` had a GHS category of 5.
For `C=CC1=C(C(=O)O)N2C(=O)[C@@H](NC(=O)C(=NOCC(=O)O)c3csc(N)n3)[C@H]2SC1`, the GHS category is reported as 5.
The same measure for `C=CCc1cc(C(C)(C)c2ccc(O)c(CC=C)c2)ccc1O`: 5; for `CC(C)C1=CC2=CC[C@H]3[C@](C)(CO)CCC[C@]3(C)[C@H]2CC1`: 5.
The same measure for `N[C@@H](Cc1cnc[nH]1)C(=O)O`: 5.
`CC(Oc1cccc(Cl)c1)C(=O)O` (configuration not stated) gave a GHS category of 4.
For `CCCC(=O)c1ccc(N)c(O)c1`, the GHS category is recorded as 5.
The same measure for `CCCC(CCC)C(=O)Oc1cc(C(C)C)ccc1C`: 5; for `CCC(O)=C1C(=O)CC(C(=O)O)CC1=O` (configuration not stated): 5; for `COc1ccc2c(c1)CCN(c1ccccc1)C2c1ccccc1OC` (configuration not stated): 4.
The same measure for `CCCCCCCCCCCCCCCC(=O)Nc1cc(Cl)c(CC)c(Cl)c1O`: 5; for `CCCCCCCCCC(C)C(OC)OC` (configuration not stated): 5.
Take `O=C(Nc1ccc(Cl)cc1)c1ccccc1`: the GHS category was 4.
For `CON=C(C(=O)OC)c1ccccc1CON=C(C)c1cccc(C(F)(F)F)c1` the value was 5.
The same measure for `CCN(CC)c1ccc(N)cc1`: 3; for `CCOCCN(Cc1ccc(Oc2ccc([N+](=O)[O-])cc2)cc1)C(=O)C(Cl)Cl`: 5; for `NC[C@H]1O[C@H](O[C@H]2[C@H](O)[C@@H](O[C@H]3O[C@H](CO)[C@@H](O)[C@H](N)[C@H]3O)[C@H](N)C[C@@H]2N)[C@H](N)[C@@H](O)[C@@H]1O`: 5.
The same measure for `C[C@@H]1O[C@@H](O[C@@H]2[C@@H](O)[C@H](OCCc3ccc(O)c(O)c3)O[C@H](CO)[C@H]2OC(=O)C=Cc2ccc(O)c(O)c2)[C@H](O)[C@H](O)[C@H]1O`: 5; for `COC(=O)C(C)(C)C(=O)OC1=C(C(=O)Nc2ccccn2)N(C)S(=O)(=O)c2cc(Cl)sc21`: 2; for `O=C1CCCCCN1C(=O)c1cccc(C(=O)N2CCCCCC2=O)c1`: 5.
As for `Cc1ccc2c(c1)c(-c1ccccc1)nn2CCCN(C)C`, the GHS category is reported as 4.
For the molecule `CCCCCCNC(=O)c1cnc2cccc(C)n2c1=O`, the GHS category is on record as 3.
The same measure for `C=CC(=O)NCCO`: 5; for `OC[C@H]1O[C@@H](OC[C@H]2O[C@@H](O[C@@H]3[C@@H](O)[C@H](O)O[C@H](CO)[C@H]3O)[C@H](O)[C@@H](O[C@@H]3O[C@H](CO)[C@@H](O)[C@H](O)[C@H]3O)[C@@H]2O)[C@H](O)[C@@H](O)[C@@H]1O`: 4; for `COc1ccc2c(c1)CCN(c1ccccc1)C2c1cccc(Br)c1` (configuration not stated): 4.
For `O=C(Nc1ccc(Cc2ccc(NC(=O)NC3CCCCC3)cc2)cc1)NC1CCCCC1` the value was 5.
The same measure for `CCCCOC(=O)C(C)C`: 5.
Turning to `O=C(Nc1ccc(NC(=O)c2cc3ccccc3c(N=Nc3ccc(Cl)cc3[N+](=O)[O-])c2O)c(Cl)c1)c1cc2ccccc2c(N=Nc2ccc(Cl)cc2[N+](=O)[O-])c1O`, the GHS category is given as 5.
In turn, `O=C(O)[C@H]1O[C@@H](O)[C@@H](O)[C@@H](O)[C@@H]1O` returned a GHS category of 5.
The same measure for `CCCOc1nn(C(=O)NS(=O)(=O)c2ccccc2C(=O)OC)c(=O)n1C`: 5; for `CC(OC(=O)ON1C(=O)CCC1=O)OC(=O)C(C)C` (configuration not stated): 4; for `CCN(CC)CCN(CCN(CC)CC)n1cc(-c2ccc(Cl)cc2)c2cc(C)ccc21`: 4.
Turning to `C/C=C/C=C/CCCCCCCO`, the GHS category turned out to be 5.
The same measure for `N#Cc1c(Cl)nc(Cl)c(C#N)c1-c1ccccc1`: 5; for `c1ccc(C2CCCCC2)cc1`: 5; for `CCCCCCCCCCCCCCCC(=O)OCC(CC)CCCC` (configuration not stated): 5.
For `C=COCC1CCC(COC=C)CC1` (configuration not stated) the value was 5; for `CCCCCCCCCCOC(C)=O`, 5; for `CCCCCC(=O)[Si](C)(C)C`, 5.
The same measure for `CC(O)CN(CC(C)O)C(=O)CCCCC(=O)N(CC(C)O)CC(C)O` (configuration not stated): 5; for `Cc1cc(C)c(NC(=O)c2sc(N)nc2C)c(C)c1`: 4; for `CCCc1nc(C)c2c(=O)nc(-c3cc(S(=O)(=O)O)ccc3OCC)[nH]n12`: 5.
In turn, `CC1CC2(CC(C)OC2=O)C(=O)O1` (configuration not stated) displayed a GHS category of 5.
Regarding `CCCC/C=C\CCCCCCCCCC=O`, the GHS category is on record as 5.
For `O=C=Nc1cc(Cl)cc(Cl)c1`, the GHS category was 5.
Molecule `O=C(CCc1ccc(O)cc1)Nc1ccccc1C(=O)O` returned a GHS category of 5.
For `CNc1ncnc2c1ncn2Cc1ccccc1F` the value was 4.
The same measure for `CCOC(=O)C1=C(C)NC(C[P+](c2ccccc2)(c2ccccc2)c2ccccc2)=C(C(=O)OCC)C1c1cccc([N+](=O)[O-])c1` (configuration not stated): 4; for `C=CC(=C)CC/C=C(\C)CCC=C(C)C`: 5; for `COc1ccccc1N1CCN(/C(=N\CC(C)C)Nc2ccc(Cl)c(Cl)c2)CC1`: 4.
For `O=[N+]([O-])c1ccc2c(c1)COP(=S)(N1CCCC1)O2` (configuration not stated) the value was 3.
Consider `CCCNC(=O)c1cnc2cccc(C)n2c1=O`, for which the GHS category is 3.
For `FC(F)(Cl)C(F)(Cl)C(F)(Cl)C(F)(F)Cl` (configuration not stated) the value was 5; for `CN1C(=CC=O)C(C)(C)c2ccccc21`, 3; for `NC(=O)Oc1ccccc1C(=O)Oc1ccc(Cl)cc1`, 5.
Regarding `O=C1NC(=O)C(c2ccc(O)cc2)(c2cccs2)N1` (configuration not stated), the GHS category worked out at 5.
For `CCCCCC(=O)CC` the value was 5; for `CCn1cc(C(=O)O)c(=O)c2cnc(N3CCNCC3)nc21`, 5; for `CC(C)OP(=O)(O)Oc1ccccc1`, 5.
The same measure for `O=C1NC(c2ccccc2)=C2C(=O)NC(c3ccccc3)=C12`: 5; for `CC(=O)O[C@]1(C(C)=O)CC[C@H]2[C@@H]3C=C(Cl)C4=CC(=O)[C@@H]5C[C@@H]5[C@]4(C)[C@H]3CC[C@@]21C`: 5; for `O=C(O)CCC(CC(=O)O)(C(=O)O)P(=O)(O)O` (configuration not stated): 5.
The same measure for `C[C@H]1O[C@H](OC[C@H]2O[C@H](O)[C@H](OS(=O)(=O)O)[C@@H](OS(=O)(=O)O)[C@@H]2OS(=O)(=O)O)[C@H](OS(=O)(=O)O)[C@@H](OS(=O)(=O)O)[C@@H]1O`: 5; for `CC(C)(C)CC(C)(C)c1cc(-n2nc3ccccc3n2)c(O)c(C(C)(C)c2ccccc2)c1`: 5; for `CCCOc1nn(-c2cccc(C(F)(F)F)c2)c2ncccc12`: 4.
In turn, `NS(=O)(=O)c1cc(C(=O)NN2C[C@H]3[C@H]4CCC(C4)[C@H]3C2)ccc1Cl` returned a GHS category of 5.
Molecule `CCOC(=O)c1ccnc(C(=O)OCC)c1` displayed a GHS category of 5.
Take `CCOC(=O)C(=O)Nc1nc(-c2ccc(OC)cc2)cs1`: the GHS category came out at 5.
